Tests used:
[1] = system: GFAP, Iba-1, Connexin43 (retinal inflammation markers); experiment: Immunohistochemical labelling of GFAP, Iba-1 and Connexin43 in retina of light damaged rats; type: in vivo, Sprague Dawley (SD) rats
Experimental: Retina Light Damage Model of Dry Age-Related Macular Degeneration—The intense light damage model was prepared and carried out as described in previous studies. Mat Nor N, Guo C X, Rupenthal ID, Chen Y S, Green C R, Acosta M L. Sustained Connexin43 Mimetic Peptide Release From Loaded Nanoparticles Reduces Retinal and Choroidal Photodamage. Invest Ophthalmol Vis Sci. 2018; 59:3682-93; Guo C X, Mat Nor M N, Danesh-Meyer H V, Vessey K A, Fletcher E L, O'Carroll S J, et al. Connexin43 Mimetic Peptide Improves Retinal Function and Reduces Inflammation in a Light-Damaged Albino Rat Model. Invest Ophthalmol Vis Sci. 2016; 57:3961-73; Guo C X, Tran H, Green C R, Danesh-Meyer H V, Acosta M L. Gap junction proteins in the light-damaged albino rat. Mol Vis. 2014; 20:670-82; Noell W K, Walker V S, Kang B S, Berman S. Retinal damage by light in rats. Invest Ophthalmol. 1966; 5:450-73. The light damage rat model was selected as it allows direct comparison with this and other drugs. Kim Y, Griffin J M, Nor M N M, Zhang J, Freestone P S, Danesh-Meyer H V, et al. Tonabersat Prevents Inflammatory Damage in the Central Nervous System by Blocking Connexin43 Hemichannels. Neurotherapeutics. 2017; 14:1148-65; Mat Nor N, Guo C X, Rupenthal ID, Chen Y S, Green C R, Acosta M L, supra; Guo C X, Mat Nor M N, Danesh-Meyer H V, Vessey K A, Fletcher E L, O'Carroll S J, et al., supra. […] All experimental procedures were approved by the University of Auckland Animal Ethics Committee, approval No. 001462 and comply with the Association for Research in Vision and Ophthalmology (ARVO) statement for the use of animals in eye research. Six to eight-week old albino Sprague Dawley (SD) rats (200-250 g; male or female) were used. Adult SD rats were exposed to continuous bright light for 24 hours, consistently starting at 9:00 am to minimize possible time-of-day variability. Light exposure was to two animals at a time to prevent rats from taking cover using each other as a shield. The LD protocol and intervention was repeated until the number of individuals for each dose group was obtained (n=7 per group). The light luminance was 2700 lux, generated using fluorescent lamps (Philips Master TLD 18W/965; Koninklijke Philips Electronics N.V., China) directly above the animal cages. The lamps were cool and emitted broadband light, from 380 to 760 nm wavelength, with the average intensity at the top of the cage being 120 W/m2. Animals were free to move within the cage with access to food and water ad libidum. Baseline electroretinography (ERG) readings and optical coherence tomography (OCT) images were collected prior to the light damage. After light exposure, animals were returned to normal light-dark cycle conditions (12 hours light, 174 lux and 12 hours darkness, <62 lux) for 24 hours, 1 week or 2 weeks (and for one group 3 months).
Tonabersat treatment of light damaged rats—LD rats were randomly assigned to low, middle or high dose of tonabersat (n=7 per group). The mixture of tonabersat in peanut butter was prepared fresh for each experiment. Three oral tonabersat doses were tested (n=7 per group) with follow up to 2 weeks post-injury, and the highest dose group then split with three animals taken for histological analysis, and four animals followed to 3 months post-injury. There was a ten-animal vehicle only control group. The group of rats that were kept for 3 months were maintained in separate cages for drug or vehicle-treated animals, but were kept under the same light conditions. Tonabersat was fed to animals in peanut butter at 0.26 mg/kg (on average 0.08 mg delivered, estimated circulating concentration 10 μM), 0.8 mg/kg (average of 0.24 mg delivered; 30 μM circulating) or 2.4 mg/kg (on average 0.72 mg delivered; 90 μM circulating) following consideration of previous unsuccessful human trial dosing levels. Silberstein S D. Tonabersat, a novel gap-junction modulator for the prevention of migraine. Cephalalgia. […]

[2] = Estimated circulating concentration after oral tonabersat in peanut butter; type: in vivo, Sprague Dawley (SD) rats
Experimental: Tonabersat treatment of light damaged rats—LD rats were randomly assigned to low, middle or high dose of tonabersat (n=7 per group). The mixture of tonabersat in peanut butter was prepared fresh for each experiment. Three oral tonabersat doses were tested (n=7 per group) with follow up to 2 weeks post-injury, and the highest dose group then split with three animals taken for histological analysis, and four animals followed to 3 months post-injury. There was a ten-animal vehicle only control group. The group of rats that were kept for 3 months were maintained in separate cages for drug or vehicle-treated animals, but were kept under the same light conditions. Tonabersat was fed to animals in peanut butter at 0.26 mg/kg (on average 0.08 mg delivered, estimated circulating concentration 10 μM), 0.8 mg/kg (average of 0.24 mg delivered; 30 μM circulating) or 2.4 mg/kg (on average 0.72 mg delivered; 90 μM circulating) following consideration of previous unsuccessful human trial dosing levels. Silberstein S D. Tonabersat, a novel gap-junction modulator for the prevention of migraine. Cephalalgia. 2009; 29 Suppl 2:28-35; Dahlof C G, Hauge A W, Olesen J. Efficacy and safety of tonabersat, a gap-junction modulator, in the acute treatment of migraine: a double-blind, parallel-group, randomized study. Cephalalgia. 2009; 29 Suppl 2:7-16; Goadsby P J, Ferrari M D, Csanyi A, Olesen J, Mills J G, Tonabersat TONSG. Randomized, double-blind, placebo-controlled, proof-of-concept study of the cortical spreading depression inhibiting agent tonabersat in migraine prophylaxis. Cephalalgia. 2009; 29:742-50. […] The treatment groups were known to the investigator at the time of treatment, but groups were then randomized prior to statistical comparison which meant that analysis was conducted without the knowledge of which were treated or control animals. […] Two weeks later animals were again assessed with ERG and OCT and tissue collection proceeded immediately after, except for four rats in the high dose group that were under experimentation for 3 more months.

[3] = all tonabersat treated groups, p<0.001

With CC(=O)c1ccc2c(c1)[C@H](NC(=O)c1ccc(F)c(Cl)c1)[C@H](O)C(C)(C)O2 [tonabersat, N-[(3S,4S)-6-acetyl-3-hydroxy-2,2-dimethyl-3,4-dihydrochromen-4-yl]-3-chloro-4-fluorobenzamide] the Iba-1 reactivity ([1]; 0.26 mg/kg) was “slightly higher level”, the GFAP labelling ([1]; 0.26 mg/kg, significantly less than vehicle) was “slight increase” and the “GFAP immunoreactivity in the retina compared to vehicle” value ([1]; 0.8 mg/kg) was “did not increase”. For the same molecule, the “GFAP immunoreactivity in the retina compared to vehicle” value ([1]; 2.4 mg/kg) was “did not increase”, the “Connexin43 immunoreactivity in the retina compared to vehicle” value ([1]; all three tonabersat doses) was “less” and the “Connexin43 level, image quantification vs vehicle controls” value [1, 3] was “significantly less”. For the same molecule, the “GFAP level, image quantification vs vehicle controls” value [1, 3] was “significantly less”, the “Iba-1 level, image quantification vs vehicle controls” value [1, 3] was “significantly less” and the “Iba-1 immunolabelled cells in inner plexiform layer compared to vehicle” value ([1]; drug treated groups (all three doses)) was “less active”. The estimated circulating concentration ([2]; 0.26 mg/kg oral in peanut butter (on average 0.08 mg delivered)) was 10 µM, the estimated circulating concentration ([2]; 0.8 mg/kg oral in peanut butter (average 0.24 mg delivered)) was 30 µM and the estimated circulating concentration ([2]; 2.4 mg/kg oral in peanut butter (on average 0.72 mg delivered)) was 90 µM.

Reference: US20220401408A1, “COMPOSITIONS AND METHODS FOR RESCUING RETINAL AND CHOROIDAL STRUCTURE AND FUNCTION” (AUCKLAND UNISERVICES LIMITED, priority 2019, published 2022)
